Source: PMC4501119, “Cholestenoic acid, an endogenous cholesterol metabolite, is a potent γ-secretase modulator” (Molecular Neurodegeneration, 2015)
Read-outs that look alike come from different tables or passages of the source.

What was measured:
[1] = tested on: Aβ42 in CHO-2B7 cells (CHO cells stably overexpressing APP695); experiment: Cell-based Aβ sandwich ELISA of conditioned media from CHO-2B7 cells treated 16 h; parameters: species or system Chinese hamster; details: for GSM activity: dose dependent studies; for GSM activity / fold less potent than CA 2a (Aβ42 EC50): CHO-2B7 cells
Experimental: Chinese hamster ovary (CHO) cells stably overexpressing APP695 (CHO-2B7 cells) were grown in Ham’s F-12 medium (Life Technologies) supplemented with 10 % fetal bovine serum and 100 units/ml of penicillin and 100 μg/ml streptomycin. Cells were grown at 37 °C in a humidified atmosphere containing 5 % CO2 in tissue culture plates (Costar). The cells were harvested at confluence and then utilized for biochemical analyses. Compounds were dissolved in dimethyl sulfoxide (DMSO) and screened in CHO-2B7 cells. The cells were incubated for 16 h in the presence of the compound diluted into OptiMEM-reduced serum medium (Life Technologies, Carlsbad, CA, USA) containing 1 % fetal bovine serum.
Monoclonal antibodies to Aβ were generated by the Mayo Clinic Immunology Core facilities (Jacksonville, FL, USA). Ab5 recognizes an epitope in the amino terminus of Aβ (Aβ1-16), recognizes both monomeric and aggregated Aβ, and is human specific. […] Ab 2.1.3 was raised against Aβ35-42 and is specific for Aβx-42. […] Total Aβ level was determined by capture with Ab5 and detected with horseradish peroxidase (HRP)-conjugated 4G8 (a monoclonal antibody against Aβ17-24; Covance, Waltham, MA, USA) with the other Aβ peptides detected with HRP-conjugated Ab5. For the cell-free assay and measuring mouse endogenous Aβ, HRP-conjugated 4G8 was used as the secondary detection antibody. Aβ standards (Bachem, King of Prussia, PA, USA) were prepared by dissolving in hexafluoroisopropanol (HFIP) at 1 mg/ml with sonication, dried under nitrogen, resuspended at 2 mg/ml HFIP, sonicated again and dried under nitrogen. The resulting Aβ was resuspended in 0.01 % ammonium hydroxide, portioned into aliquots in EC buffer, and frozen at −80 °C.

[2] = tested on: Aβ42; details: cited from earlier work; for GSM activity: endogenous bile acids
[3] = tested on: endogenous mouse Aβ (mAβ) in primary neuron-glia cultures; experiment: Primary mixed neuron-glia culture, endogenous mouse Aβ ELISA; format: cell-based
Experimental: Primary mixed neuron-glia cultures were prepared from postnatal day 0 (P0) C3HBL/6 mouse brains (Harlan Labs). Cerebral cortices were dissected from P0 mouse brains and were dissociated in 2 mg/ml papain (Worthington) and 50 μg/mL DNAse I (Sigma) at 37 °C for 20 min. They were then washed three times in sterile Hank’s balanced salt solution (HBSS) to inactivate the papain and switched to 5 % fetal bovine serume (HyClone) in Neurobasal-A growth media (Gibco), which includes 0.5 mM L-glutamine (Gibco), 0.5 mM GlutaMax (Life Technologies), 0.01 % antibiotic-antimycotic (Gibco), and 0.02 % SM1 supplement (Stemcell). The tissue mixture was then triturated three times using a 5 mL pipette followed by a Pasteur pipette, and strained through a 70 μm cell strainer. The cell mixture was then centrifuged at 200xg for 3 min, and re-suspended in fresh Neurobasal-A media. They were then plated onto poly-D-lysine coated 96well plates at 100,000 cells/well. Cells were maintained in the Neurobasal-A growth media mentioned above without fetal bovine serum (FBS) at 37 °C in a humidified 5 % CO2 chamber.
(§1) Monoclonal antibodies to Aβ were generated by the Mayo Clinic Immunology Core facilities (Jacksonville, FL, USA). Ab5 recognizes an epitope in the amino terminus of Aβ (Aβ1-16), recognizes both monomeric and aggregated Aβ, and is human specific. […] Ab 2.1.3 was raised against Aβ35-42 and is specific for Aβx-42. […] For cell-based screens, Aβ was captured from conditioned medium with either Ab5, Ab38, Ab13.1.1, or Ab2.1.3 (coated at 10-50 μg/ml in EC buffer: 5 mM NaH2PO4-H2O, 20 mM Na2HPO4, 400 mM NaCl, 2.5 mM EDTA-full name, 151.5 μM BSA, 813 μM CHAPS, and 7.7 mM NaN3) on Immulon 4HBX Flat-Bottom Microfilter 96-well plates (Thermo Scientific, Waltham, MA, USA). Total Aβ level was determined by capture with Ab5 and detected with horseradish peroxidase (HRP)-conjugated 4G8 (a monoclonal antibody against Aβ17-24; Covance, Waltham, MA, USA) with the other Aβ peptides detected with HRP-conjugated Ab5. For the cell-free assay and measuring mouse endogenous Aβ, HRP-conjugated 4G8 was used as the secondary detection antibody. Aβ standards (Bachem, King of Prussia, PA, USA) were prepared by dissolving in hexafluoroisopropanol (HFIP) at 1 mg/ml with sonication, dried under nitrogen, resuspended at 2 mg/ml HFIP, sonicated again and dried under nitrogen. The resulting Aβ was resuspended in 0.01 % ammonium hydroxide, portioned into aliquots in EC buffer, and frozen at −80 °C. Following these steps, the Aβ is monomeric, as determined by size-exclusion chromatography.

[4] = tested on: brain mAβ42, mAβ38 and total mAβ; experiment: Brain Aβ levels after intraperitoneal injection in wild type mice; format: in vivo, mouse (C57BL/6 or CF-1); details: 30 mg/kg IP, brains harvested after 30 min, 1, 2 and 3 h
Experimental: 25(R)-CA powder was initially dissolved in DMSO (<4.5 % in the final mixture) and then combined with polyethylene glycol (15)-hydroxystearate (Solutol), ethanol, and water at a ratio of (15:10:75). One molar equivalent of sodium hydroxide was added to the mixture. We performed CA intraperitoneal (IP) injections to wild-type mice (C57BL/6 or CF-1). The mice were injected with 25(R)-CA on the right side of the abdomen. The injections have been performed with various time points (30 min, 1 h, 2 h, and 3 h) and with multiple doses (30 mg per kg (mg/kg), 60 mg/kg, 75 mg/kg and 100 mg/kg). The number of each cohort is 6–8. We used 30 mg/kg of CA for the time-course experiments, and for the dose–response experiments the end-point was set at 30 min. The brains and serum are harvested and frozen for brain Aβ extraction.
The mouse brains were harvested at the age of 3 months. The brains were weighed and recorded. The Diethylamine/Sodium Chloride (DEA/NaCl) extraction buffer (0.4 % DEA) was added to each sample and homogenized using a sonicator. The samples were transferred to a poly-carbonate centrifuge tube and spun down at 50,000xg for 30 min at 4 °C. The supernatant was loaded on the vacuum manifold with the appropriate number of HLB Oasis columns. The samples were loaded on the conditioned column, filtered, and eluted using prepared elution buffer (90 % Methanol, 2 % NH4OH). The eluates are concentrated using the Thermo-Savant SpeedVac concentrator for a minimum of 2 h at 55 °C with radiant heat. The concentrated samples are reconstituted in a blocking buffer (0.67 % Bovine serum albumin (BSA)) at the appropriate volume.
Monoclonal antibodies to Aβ were generated by the Mayo Clinic Immunology Core facilities (Jacksonville, FL, USA). […] Total Aβ level was determined by capture with Ab5 and detected with horseradish peroxidase (HRP)-conjugated 4G8 (a monoclonal antibody against Aβ17-24; Covance, Waltham, MA, USA) with the other Aβ peptides detected with HRP-conjugated Ab5. […] Following these steps, the Aβ is monomeric, as determined by size-exclusion chromatography.

[5] = target: T1, γ-secretase (Homo sapiens, UniProt P49768); experiment: In vitro γ-secretase (broken cell) assay, membranes of H4 neuroglioma cells overexpressing APP695wt, Aβ ELISA; format: biochemical; details: vs DMSO control, 2 h incubation
T1 construct: The membrane derived from the H4 neuroglioma cells overexpressing APP695wt were prepared by carbonate extraction; endogenous in cells; host or cells: H4 neuroglioma cells overexpressing APP695wt (membranes, carbonate extraction)
Experimental: Broken cell assays were performed with slight modifications from the previous studies. The membrane derived from the H4 neuroglioma cells overexpressing APP695wt were prepared by carbonate extraction and incubated at 37 °C for 2 h with CA at various concentrations. Aβ levels were quantified by sandwich ELISAs. For Aβ and AICD spectra, the recombinant C100Flag proteins were overexpressed and purified from Escherichia coli BL21 using a HiTrap Q-column (GE Life Science, Little Chalfont, U.K.). The membrane containing γ-secretase was isolated from the CHO S-1 cell line using sodium carbonate (100 mM, pH 11.0). For the in vitro γ-secretase assay, C100Flag recombinant protein at 25 μM was incubated with the membrane (100 μg/mL) in the presence of CA (20 μM) and DMSO in 150 mM sodium citrate buffer (pH 6.8) containing complete protease inhibitor (Roche, Indianapolis, IN) for 2 h at 37 °C.
as §1

[6] = Cricetulus griseus, CHO-2B7, 16 h, lowering Aβ42, CHO-2B7 cells, 16 h, ELISA
[7] = lowering Aβ42, CHO-2B7 cells, 16 h, ELISA
[8] = Cricetulus griseus, lowering Aβ42, CHO-2B7 cells, 16 h, ELISA
[9] = Cricetulus griseus, lowering Aβ42, CHO-2B7 cells, approximate value

With `CC(CCCC(C)C1CCC2C3C(O)CC4=CC(=O)CCC4(C)C3CCC12C)C(=O)O` (stereo not drawn) [7α-OH-4-CA, 7α-hydroxy-4-oxo-cholestenoic acid] the EC50 [1, 6] was 4150 nM and the GSM activity [1] was “demonstrated GSM activity”.
With `CC(CCCC(C)C1CCC2C3C(O)C=C4CC(O)CCC4(C)C3CCC12C)C(=O)O` (stereo not drawn) [7α-OH-CA, 7α-hydroxy-cholestenoic acid] the EC50 [1, 6] was 970 nM and the GSM activity [1] was “demonstrated GSM activity”.
With `C[C@@H](CO)CCC[C@@H](C)[C@H]1CC[C@H]2[C@@H]3CC=C4C[C@@H](O)CC[C@]4(C)[C@H]3CC[C@]12C` [27-OHC, 27-hydroxycholesterol] the GSM activity [1] was “inactive” and the “Aβ42 EC50” value [1, 7] was “could not be determined”.
In the case of `C[C@H](CCC(=O)O)[C@H]1CC[C@H]2[C@@H]3CC[C@@H]4CCCC[C@]4(C)[C@H]3CC[C@]12C` [Cmpd 1, 5β-Cholanic acid], the EC50 ([2]; decreasing Aβ42) is given as ~5700 nM and the EC50 ([2]; decreasing Aβ42, listed as 5β-cholanic acid) is given as 5700 nM.
For `C[C@H](CCC[C@H](C)C(=O)O)[C@H]1CC[C@H]2[C@@H]3CC=C4C[C@@H](O)CC[C@]4(C)[C@H]3CC[C@]12C` [Cmpd 2b, 25-(S)-CA], the “fold less potent than CA 2a (Aβ42 EC50)” value [1] was “about 2 fold” and the EC50 [1, 7] was 501 nM.
In the case of `O=C(O)[C@H](CC1CCC1)c1cc(Cl)c(OCC(F)(F)F)c(-c2ccc(C(F)(F)F)cc2)c1` [Cmpd 3, (R)-2-(5-chloro-6-(2,2,2-trifluoroethoxy)-4’-(trifluoromethyl)biphenyl-3-yl)-3-cyclobutylpropanoic acid], the EC50 ([2]; GSM activity, ref the previous literature) is listed as 67 nM.
For `CC(C)CC(c1ccc(Cl)cc1)N1CC[C@@H](CC(=O)O)C[C@H]1c1ccc(C(F)(F)F)cc1` (stereo partly drawn) [Cmpd 4, reference compound], the mAβ38 level ([3]; 1 μM) was “increased”, the mAβ42 level ([3]; 1 μM) was “decreased” and the EC50 [1, 6] was 92 nM. For the same molecule, the “brain Aβ levels” value [4] was “expected Aβ modulation”.
Molecule `C[C@H](CCCC(=O)O)[C@H]1CC[C@H]2[C@@H]3CC=C4C[C@@H](O[Si](C)(C)C(C)(C)C)CC[C@]4(C)[C@H]3CC[C@]12C` [Cmpd 5] has an EC50 [1, 8] of 1780 nM and an EC50 [1, 9] of ~2000 nM.
With `C[C@H](CCCC(=O)O)[C@H]1CC[C@H]2[C@@H]3CC=C4C[C@@H](O)CC[C@]4(C)[C@H]3CC[C@]12C` [Cmpd 6] the EC50 [1, 8] was 1960 nM and the EC50 [1, 9] was ~2000 nM.
`CC(CCCC(C)C1CCC2C3CC=C4CC(F)CCC4(C)C3CCC12C)C(=O)O` (stereo not drawn) [Cmpd 12] gave an EC50 [1, 7] of 8910 nM.
With `CC(CCC[C@@H](C)[C@H]1CC[C@H]2[C@@H]3CC=C4CCCC[C@]4(C)[C@H]3CC[C@]12C)C(=O)O` (stereo partly drawn) [Cmpd 13, 3-deoxy-CA] the “fold less potent than CA 2a (Aβ42 EC50)” value [1] was “approximately 3 fold” and the EC50 [1, 7] was 670 nM.
For `C[C@H](NC(=O)Cc1cc(F)cc(F)c1)C(=O)N[C@H]1N=C(c2ccccc2)c2ccccc2N(C)C1=O` [Cmpd E, reference compound], the “overall Aβ production” value [3] was “decreased”, the “decrease of total Aβ production” value [5] was 77% and the “decrease of Aβ42 production” value ([5]; CA at 150 μM) was 91%.
For `C[C@H](CCC(=O)O)[C@H]1CC[C@H]2[C@@H]3CC[C@@H]4C[C@H](O)CC[C@]4(C)[C@H]3CC[C@]12C` [lithocholic acid], the GSM activity [2] is listed as “GSMs”.
For `C[C@H](CCC(=O)O)[C@H]1CC[C@H]2[C@@H]3[C@@H](O)C[C@@H]4C[C@H](O)CC[C@]4(C)[C@H]3C[C@H](O)[C@]12C` [ursocholic acid], the GSM activity [2] is listed as “GSMs”.
